# Data reported in patent publication US9986740B2, “Methods of identifying insect-TRPA1 modulators” (BRANDEIS UNIVERSITY, priority 2010, dated 2018).
# Columns and labels:
# Drosophila flies = test: Proboscis extension response (PER) behavioral assay; assay type: in vivo, Drosophila melanogaster
# uninjected oocytes = test: Two-electrode voltage clamping on uninjected oocytes; assay type: cell-based, Xenopus laevis; settings: 3 mM AITC, 1 mM CA, 0.1 mM NMM
# dTRPA1 = biological target: T1, dTRPA1 (Drosophila melanogaster, UniProt Q7Z020); test: Larval neuromuscular junction electrophysiology, dTRPA1 expressed in motor neurons; assay type: cell-based; settings: third instar larval muscles
# T1 sequence (Q7Z020 1-1197): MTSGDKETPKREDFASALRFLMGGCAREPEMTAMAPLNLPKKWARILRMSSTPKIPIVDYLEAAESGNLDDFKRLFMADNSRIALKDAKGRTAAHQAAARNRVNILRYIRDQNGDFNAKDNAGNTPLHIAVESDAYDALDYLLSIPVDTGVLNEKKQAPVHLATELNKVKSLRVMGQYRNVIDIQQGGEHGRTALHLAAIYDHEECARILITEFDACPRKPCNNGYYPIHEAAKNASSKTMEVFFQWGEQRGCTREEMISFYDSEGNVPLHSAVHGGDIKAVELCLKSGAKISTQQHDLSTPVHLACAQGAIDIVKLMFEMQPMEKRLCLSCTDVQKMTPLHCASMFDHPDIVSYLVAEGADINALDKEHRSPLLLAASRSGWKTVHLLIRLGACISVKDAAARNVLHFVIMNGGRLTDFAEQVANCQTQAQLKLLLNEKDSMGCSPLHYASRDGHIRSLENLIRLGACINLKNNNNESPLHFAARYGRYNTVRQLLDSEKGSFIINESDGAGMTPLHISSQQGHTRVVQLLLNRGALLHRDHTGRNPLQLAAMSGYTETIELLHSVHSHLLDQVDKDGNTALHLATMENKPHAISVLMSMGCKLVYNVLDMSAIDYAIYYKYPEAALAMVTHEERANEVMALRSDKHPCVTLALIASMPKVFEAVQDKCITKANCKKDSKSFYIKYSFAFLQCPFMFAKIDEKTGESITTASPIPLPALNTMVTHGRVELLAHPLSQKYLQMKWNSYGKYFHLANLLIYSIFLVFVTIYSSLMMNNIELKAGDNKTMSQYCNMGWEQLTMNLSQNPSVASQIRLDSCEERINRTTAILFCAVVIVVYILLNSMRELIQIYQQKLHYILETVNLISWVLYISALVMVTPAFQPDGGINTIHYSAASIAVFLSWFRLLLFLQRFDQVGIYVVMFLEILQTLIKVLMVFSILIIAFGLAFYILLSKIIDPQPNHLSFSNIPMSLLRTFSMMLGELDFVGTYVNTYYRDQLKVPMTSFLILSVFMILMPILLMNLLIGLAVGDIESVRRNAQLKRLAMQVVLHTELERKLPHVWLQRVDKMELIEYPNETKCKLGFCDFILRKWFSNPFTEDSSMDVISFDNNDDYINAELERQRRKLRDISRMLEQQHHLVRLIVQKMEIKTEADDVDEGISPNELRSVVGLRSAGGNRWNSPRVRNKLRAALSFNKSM
# Painless = biological target: T2, Painless (Drosophila melanogaster, UniProt Q9W0Y6); test: Larval neuromuscular junction electrophysiology, Painless expressed in motor neurons; assay type: cell-based; settings: 500 μM, third instar larval muscles
# T2 sequence (Q9W0Y6 1-913): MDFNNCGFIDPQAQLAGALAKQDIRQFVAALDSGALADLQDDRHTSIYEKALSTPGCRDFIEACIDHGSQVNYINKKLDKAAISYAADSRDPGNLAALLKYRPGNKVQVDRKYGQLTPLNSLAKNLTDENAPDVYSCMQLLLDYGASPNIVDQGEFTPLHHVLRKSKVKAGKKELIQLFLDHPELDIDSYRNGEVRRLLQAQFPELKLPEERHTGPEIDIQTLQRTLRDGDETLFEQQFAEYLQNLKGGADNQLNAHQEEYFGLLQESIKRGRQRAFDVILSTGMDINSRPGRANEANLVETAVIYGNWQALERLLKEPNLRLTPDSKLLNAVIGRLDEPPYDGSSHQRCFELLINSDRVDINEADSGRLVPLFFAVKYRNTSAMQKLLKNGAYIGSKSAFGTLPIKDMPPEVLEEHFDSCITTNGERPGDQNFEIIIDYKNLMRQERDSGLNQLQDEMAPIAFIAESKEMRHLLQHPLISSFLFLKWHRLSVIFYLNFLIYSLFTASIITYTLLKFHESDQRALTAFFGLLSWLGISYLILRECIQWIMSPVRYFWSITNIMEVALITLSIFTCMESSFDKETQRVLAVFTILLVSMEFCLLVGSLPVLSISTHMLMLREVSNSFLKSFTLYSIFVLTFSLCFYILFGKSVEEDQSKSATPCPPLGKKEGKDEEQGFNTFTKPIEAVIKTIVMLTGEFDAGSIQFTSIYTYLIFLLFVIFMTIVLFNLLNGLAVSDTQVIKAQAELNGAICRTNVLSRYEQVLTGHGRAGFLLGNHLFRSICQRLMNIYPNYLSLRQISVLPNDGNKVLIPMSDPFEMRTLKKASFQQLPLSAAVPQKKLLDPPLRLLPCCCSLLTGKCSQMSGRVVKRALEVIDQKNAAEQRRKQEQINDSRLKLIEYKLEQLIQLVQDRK
compound,measurement,setting,value
"O=CC=Cc1ccccc1 [CA, cinnamaldehyde]",Effect on PER in dTrpA1 loss-of-function mutants,"Drosophila flies; dTrpA1 loss-of-function mutants, ingestion permitted",no reduction
same,Acceptance on first offering,Drosophila flies; first of five tastant offerings,usually accepted
same,Effect on proboscis extension response (PER) / feeding,"Drosophila flies; wild type flies, ingestion permitted, 350 mM sucrose with 2 mM AITC, 10 mM NMM or 6 mM CA",robustly inhibited
same,Response of uninjected oocytes,uninjected oocytes,did not respond
same,Excitatory junction potentials (EJPs) driven by dTRPA1-expressing motor neurons,dTRPA1,cinnamaldehyde-responsive
same,Induction of EJPs in OK371>Painless animals,Painless,does not induce
